Measured values from patent US7585997B2, “Compounds and compositions for treating dysproliferative diseases, and methods of use thereof” (Chesterford Enterprises Limited, priority 2003, dated 2009).
Like-named read-outs stand apart in the source and are kept apart here.

Experiments:
Format in all cases: cell-based
[1] = system: HT-29 human colon adenocarcinoma; assay: Cell growth inhibition, HT-29 cells
[2] = system: BxPC3, carcinoma of pancreas; assay: Cell growth inhibition, BxPC3 cells; conditions: Homo sapiens, read-out: IC50, BxPC3, pancreas
JB6c141 rat skin cells = assay: Colony Formation Assay (soft agar assay for colony formation); conditions: 100 micromolar, 14 days, with or without epidermal growth factor
Text: The Colony Formation Assay, also known as “soft agar assay for colony formation” as described by David Bowtell (accessed on the Internet as recently as on Dec. 29, 2003 at http://grimwade.biochem.unimelb.edu.au/bowtell/cellbiol/sect71.htm) was also used to asses the neoplastic cell growth inhibitory effect of these compounds and using the JB6c141 rat skin cells. Briefly, and following the plating of cells in the presence or absence of epidermal growth factor and in each case, in the presence or absence of the test compound, they were incubated at […] in a humidified incubator for 14 days, when plates were stained 0.005% Crystal Violet for >1 hour, colonies were counted using a dissecting microscope.

[3] = HT-29, 24 hr, read-out: IC50, HT-29, colon
[4] = HT-29, 24 h, read-out: IC50, HT-29, colon

Row | Compound | IC50 [1, 3] | IC50 ([2]; BXPC-3, 24 hr) | IC50 [1, 4] | also measured
1 | O=C(C=Cc1ccccc1)Oc1ccc(CO)cc1 [Cinnamic acid 4-(hydroxymethyl)phenyl ester] | 150 ± 12 µM | – | – | –
2 | CC(=O)Oc1ccccc1C(=O)Oc1ccc(CO)cc1 [2-(acetyloxy)benzoic acid 4-(hydroxymethyl)phenyl ester] | > 500 µM | > 500 µM | – | –
3 | O=C(/C=C/c1ccc(O)c(O)c1)Oc1ccc(CO[N+](=O)[O-])cc1 [Compound 41, caffeic acid 4-(nitrooxymethyl)phenyl ester] | – | – | ~0.5 µM | –
4 | O=C(/C=C/c1ccc(O)c(O)c1)Oc1ccc(CCl)cc1 [Compound 47, caffeic acid 4-(chloromethyl)phenyl ester] | – | – | 0.25 µM | –
5 | CC(C(=O)Oc1ccc(COc2ccc([N+](=O)[O-])cc2[N+](=O)[O-])cc1)c1ccc(-c2ccccc2)c(F)c1 (stereo not drawn) [Compound 1] | – | – | – | IC50 ([1]; HT-29, 48 h): ~73 µM; colony formation (JB6c141 rat skin cells): abolished colony formation
6 | CC(=O)Oc1ccccc1C(=O)O [Aspirin, reference compound] | > 1000 µM | > 1000 µM | – | –
7 | O=C(O)/C=C/c1ccc(O)c(O)c1 [Caffeic acid, reference compound] | > 1000 µM | > 1000 µM | – | –
8 | CC(=O)Oc1ccccc1C(=O)Nc1ccc(CCl)cc1 [Compound 26, 2-(acetyloxy)benzoic acid 4-(chloromethyl)phenyl amide] | – | – | 12 ± 3 µM | –
9 | O=C(/C=C/c1ccc(O)c(O)c1)Oc1ccc(CO)cc1 [Caffeic acid 4-(hydroxymethyl)phenyl ester] | > 500 µM | – | – | –
10 | CC(=O)Oc1ccccc1C(=O)Nc1ccc(CBr)cc1 [Compound 29, 2-(acetyloxy)benzoic acid 4-(bromomethyl)phenyl amide] | – | – | 7 ± 2 µM | IC50 ([2]; BXPC-3, 24 h): 18 ± 3 µM
